# From patent EP1984014B1, “USE OF TPO PEPTIDE COMPOUNDS AND PHARMACEUTICAL COMPOSITIONS IN THE TREATMENT OF ANEMIA” (Janssen Pharmaceutica NV, priority 2006, dated 2007)
# Key:
# [1] = system: carboplatin treated mice; assay: Example 6: mechanistic study, increasing carboplatin doses, platelets, hematocrit, brain fibrinogen/fibrin histology; assay type: in vivo
# Method: (§1) The effects of PEGylated TPO Compound No. 1 on mice treated with carboplatin were observed. For all examples herein, a 10 mg/ml stock solution of PEGylated TPO Compound No. 1 was prepared in sterile saline. For mixing, the preparation was placed on a gyratory shaker for 15min. at 200 rpm. This method was used to dissolve PEGylated TPO Compound No. 1 without foaming. The stock was filtered using a GV Millex (0.22um) filter. Dosing solutions were then prepared from this stock using sterile saline. The stock and dosing solutions were prepared fresh on the day of use.
# For mechanistic studies, groups of mice were treated with vehicle or increasing amounts of carboplatin (i.e., 60, 70 or 80 mg/kg) for 2 consecutive days (Day -1 & Day 0). Approximately one hour following the second dose of carboplatin, groups of mice were treated with PEGylated TPO Compound No.1 (100ug/kg) or vehicle (sterile saline, SS, preservative-free 0.9% sodium chloride) by IV.(bolus) injection as delineated in Table 5.
# On Day 15, the mice in all treatment groups were euthanised using CO2-asphyxiation and exsanguinations via cardiac puncture. The blood samples were transferred to separate EDTA (lavender-top) microtainers for hematologic evaluation. In addition, several organs (including the brains) of control mice and mice treated with 2x70 mg/kg carboplatin without and with co-treatment with PEGylated TPO Compound No.1 were isolated and processed for histological examination. Sections of these tissues were processed immunohistochemically for fibrinogen/fibrin.
# [2] = system: mice treated with carboplatin; assay: Example 1: dose response of PEGylated TPO Compound No. 1 given one day after carboplatin, anemia in mice; assay type: in vivo, BALB/c mouse
# Method: as §1
# The effect of PEGylated TPO Compound No. 1 on the duration and severity of anemia following treatment of mice with carboplatin as determined by changes in hemoglobin levels, red blood cell count and hematocrit, was observed. For this study, increasing amounts of PEGylated TPO Compound No. 1 were administered to mice one day following a carboplatin dose to characterize a possible dose-dependent effect on various red blood cell parameters.
# (§2) The groups of mice were treated with either carboplatin or vehicle (Phosphate Buffered Saline, PBS) by intraperitoneal administration on Days -2 and -1 as delineated below. The optimal dose of carboplatin used to induce thrombocytopenia in the BALB/c mouse strain was previously determined to be a fractionated total dose of 120mg/kg given as two consecutive daily injections (i.e., 2x60mg/kg). One day following the second dose of carboplatin, groups of mice were treated with PEGylated TPO Compound No. 1 or vehicle (sterile saline, SS, preservative-free 0.9% sodium chloride) by IV (bolus) injection as delineated in Table 1. The dose was administered on a per-weight basis (100ul/10g body weight).
# (§3) On Days 5, 7, 9 and 11, five mice in each test group were weighed and then euthanised using CO2-asphyxiation and exsanguinations via cardiac puncture. The blood samples were transferred to separate EDTA (lavender-top) microcontainers for hematologic evaluation. Groups of control mice (5) were processed on Days 5 and 11. The data are presented graphically as group means +SEM.
# [3] = system: mice treated with carboplatin; assay: Example 3: dosing 1 hour, 1 day or 4 days after carboplatin, anemia in mice; assay type: in vivo, BALB/c mouse
# Method: as §1
# The effect of PEGylated TPO Compound No. 1 on the duration and severity of anemia following dosing regimens in which PEGylated TPO Compound No. 1 is administered at various times following the carboplatin treatment was observed. For this study, an amount of PEGylated TPO Compound No. 1 was administered to mice, one (1) hour, one (1) day or four (4) days following a carboplatin dose.
# The groups of mice were treated with either carboplatin or vehicle (Phosphate Buffered Saline, PBS) by ip administration on Days -1 and 0 as delineated below. The optimal dose of carboplatin used to induce thrombocytopenia in the BALB/c mouse strain was previously determined to be a fractionated total dose of 120mg/kg given as two consecutive daily injections (i.e., 2x60mg/kg). One hour (Day 0), one day (Day 1) or four days (Day 4) following the second dose of carboplatin, groups of mice were treated with PEGylated TPO Compound No. 1 (300ug/kg) or vehicle (sterile saline, SS, preservative-free 0.9% sodium chloride) by IV (bolus) injection as delineated in Table 3. The dose was administered on a per-weight basis (100ul/10g body weight).
# as §3, with “6, 8, 10 & 12,” for “5, 7, 9 and 11,”, “hematological” for “hematologic”, “6 & 12.” for “5 and 11.”, “+ SEM.” for “+SEM.”
# [4] = system: carboplatin-treated mice; assay: Example 4: lower doses (30, 100, 300ug/kg) as survival factor for erythrocyte lineages in carboplatin-treated mice; assay type: in vivo, BALB/c mouse
# Method: as §1
# The ability of PEGylated TPO Compound No. 1 to function as a survival factor for megakaryocyte and erythrocyte lineages in carboplatin-treated mice as determined by changes in hematological parameters was observed. […] In this study, the effect of lower doses of PEGylated TPO Compound No. 1 (i.e., 30, 100 and 300ug/kg) on the survival of erythrocyte lineages was examined to characterize the dose-response for this effect.
# as §2, with “ip” for “intraperitoneal”, “-1” for “-2”, “0” for “-1”, “Approximately one hour” for “One day”, “4.” for “1.”
# as §3, with “6, 8” for “5, 7, 9”, “12,” for “11,”, “6 & 12.” for “5 and 11. The data are presented graphically as group means +SEM.”
substance,measurement,setting,value
Methoxypolyethyleneglycol20000-propionyl-L-Isoleucyl-L-Glutamyl-Glycyl-L-Prolyl-L-Threonyl-L-Leucyl-L-Arginyl-L-Glutaminyl-L-2-Naphthylalanyl-L-Leucyl-L-Alanyl-L-Alanyl-L-Arginyl-Sarcosyl-Ne-(methoxypolyethyleneglycol20000-propionyl-L-Isoleucyl-L-Glutamyl-Glycyl-L-Prolyl-L-Threonyl-L-Leucyl-L-Arginyl-L-Glutaminyl-L-2-Naphthylalanyl-L-Leucyl-L-Alanyl-L-Alanyl-L-Arginyl-Sarcosyl-)-Lysinamide [PEGylated TPO Compound No. 1],"small vessels in brain sections, fibrinogen/fibrin staining","[1]; 2x70mg/kg carboplatin plus 100ug/kg iv, Day 15",appeared normal or exhibited fibrinogen/fibrin staining that was only slightly darker than the control group
same,microthrombotic events in brain sections,"[1]; 2x70mg/kg carboplatin plus 100ug/kg iv, entire dose group",single
same,survival,"[1]; 2x80mg/kg carboplatin plus 100ug/kg iv, all of the mice",survived until the scheduled study termination
same,thrombocytopenia or anemia,"[1]; 2x80mg/kg carboplatin plus 100ug/kg iv, on Day 15",did not exhibit thrombocytopenia or anemia
same,decreases in platelet and RBC counts induced by the carboplatin,"[1]; carboplatin 2x60 or 2x70mg/kg, 100ug/kg iv about one hour after second carboplatin dose, Day 15",totally inhibited
same,fibrinogen deposition and blood clots in brain sections,"[1]; carboplatin treated mice, FIG. 19",reduces
same,recovery of the lost body weight,"[2]; all doses tested, 11-Day study period",enhanced the recovery of the lost body weight
same,"altered appearance and behavior (hunched, flaccid, soiled anogenital areas)",[2]; appeared to be dose-dependent,"decreased the onset, frequency and severity of these signs"
same,decrease in hemoglobin levels caused by carboplatin,"[2]; carboplatin 2x60mg/kg ip Days -2 & -1, all doses (300, 1000, 3000ug/kg iv Day 0), by Day 11",inhibited
same,decreases in RBC count and hematocrit associated with carboplatin treatment,"[2]; carboplatin 2x60mg/kg ip, 300-3000ug/kg iv Day 0, no statistical evaluation",inhibited
same,time of dosing after chemotherapy at which prevention of carboplatin-induced anemia is observed,[3]; 300ug/kg iv,≤ 24 h
same,"decreases in hemoglobin levels, RBC counts and hematocrits caused by carboplatin",[3]; 300ug/kg iv on Day 0 (1 hour after carboplatin treatment),prevented
same,"decreases in hemoglobin levels, RBC counts and hematocrits caused by carboplatin",[3]; 300ug/kg iv on Day 1,prevented
same,carboplatin-induced changes in erythrocyte parameters,[3]; 300ug/kg iv on Day 4,failed to affect
same,"onset, frequency or severity of signs (hunched, flaccid)","[3]; 300ug/kg iv, no detailed analysis",did not appear to have a dramatic effect
same,weight loss associated with carboplatin treatment,"[3]; administration on Day 0, Day 1 or Day 4, no statistical analysis",did not appear to affect the weight loss
same,weight loss or recovery,[4]; 13-Day study period,did not appear to affect weight loss or recovery
same,decreases in RBC counts and hematocrit induced by carboplatin treatment,"[4]; 30, 100, 300ug/kg iv Day 0",effectively inhibited
same,decrease in hemoglobin levels caused by carboplatin,"[4]; all doses (30, 100, 300ug/kg iv Day 0, about 1 h after carboplatin), by Day 12",totally inhibited
same,anemia induced by carboplatin,"[4]; all doses, on Day 12",completely prevent
same,"altered appearance and behavior (hunched, unkempt, soft stool)",[4]; appeared to be dose-dependent,"decreased the onset, frequency and severity of these signs"
